In this assay the target is Neuronal acetylcholine receptor subunit alpha-7 (Mus musculus, UniProt P49582). The experiment in a line: Displacement of [125I]alpha-bungarotoxin from alpha7 nAChR in C57BL/6J mouse hippocampal membrane. On the technique in general: Displacement assays read how much labelled ligand stays bound in the presence of the test substance.

Each structure is given as a SMILES string.

Sequence of Neuronal acetylcholine receptor subunit alpha-7 (P49582 whole entry): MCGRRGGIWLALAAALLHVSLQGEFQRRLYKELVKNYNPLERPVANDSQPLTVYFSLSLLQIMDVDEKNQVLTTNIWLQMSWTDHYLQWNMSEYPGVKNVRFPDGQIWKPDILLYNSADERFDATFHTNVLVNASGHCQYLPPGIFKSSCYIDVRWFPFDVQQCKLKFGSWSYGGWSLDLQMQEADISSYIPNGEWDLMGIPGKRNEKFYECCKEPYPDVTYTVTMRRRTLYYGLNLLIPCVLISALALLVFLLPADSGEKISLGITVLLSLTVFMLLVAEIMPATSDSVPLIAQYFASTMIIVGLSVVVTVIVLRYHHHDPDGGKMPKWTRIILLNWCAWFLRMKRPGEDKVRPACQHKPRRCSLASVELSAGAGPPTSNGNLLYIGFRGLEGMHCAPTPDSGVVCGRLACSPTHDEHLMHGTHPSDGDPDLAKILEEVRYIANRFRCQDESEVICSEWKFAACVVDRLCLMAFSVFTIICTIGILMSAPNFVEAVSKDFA

As a reminder, the Ki is a dissociation constant, usually derived from enzyme kinetics or from competition with a known ligand. A lower Ki goes with higher affinity. The compound `O=C(O)[C@@H](O)[C@H](O)[C@H](O)[C@@H](O)C(=O)O` gave a Ki of over 10 µM.
